The subject of this experiment is HBsAg in HepG2.2.15 cells. Put plainly: HBsAg assay: inhibition of HBsAg in HepG2.2.15 cells (chemiluminescence immunoassay of supernatant). In kind it is cell-based, hepatitis B virus. The procedure:
Inhibition of HBsAg was determined in HepG2.2.15 cells. Cells were maintained in culture medium containing 10% fetal calf serum, […], Glutamine, penicillin/streptomycin. Cells were seeded in 96-well collagen-coated plate at a density of 30,000 cells/well. Serially diluted compounds were added to cells next day at the final DMSO concentration of 0.5%. Cells were incubated with compounds for 2-3 days, after which medium was removed. Fresh medium containing compounds was added to cells for additional 3-4 days. At day 6 after exposure of compounds, supernatant was collected, the HBsAg immunoassay (microplate-based chemiluminescence immunoassay kits, CLIA, Autobio Diagnosics Co., Zhengzhou, China, Catalog #CL0310-2) was used to determine the level of HBsAg according to manufactory instruction. Dose-response curves were generated and the EC50 value (effective concentrations that achieved 50% inhibitory effect) were determined using XLfit software. In addition, cells were seeded at a density of 5,000 cells/well for determination of cell viability in the presence and absence of compounds by using CellTiter-Glo reagent (Promega).

[1] abbreviates: Hepatitis B virus, HepG2.2.15, 144 h, read-out: sAg EC50, HepG2.2.15 cells, supernatant collected at day 6 after exposure, HBsAg CLIA.

The record followed here is patent US20210251991A1, “SUBSTITUTED 2,2'-BIPYRIMIDINYL COMPOUNDS, ANALOGUES THEREOF, AND METHODS USING SAME” (priority 2018, published 2021).

Where two headings read alike, the source gives them in different places.

`CCC1c2cc(F)c(OC)cc2CCN1c1cnc(-c2ncccn2)nc1` (single isomer, unassigned) [Example 134, 2-(2,2′-Bipyrimidin-5-yl)-1-ethyl-7-fluoro-6-methoxy-1,2,3,4-tetrahydroisoquinoline]: where the note is “read-out: sAg EC50, HepG2.2.15 cells, supernatant collected at day 6 after exposure, HBsAg CLIA”, the EC50 was 54 nM.
`Fc1cc(F)c2c(c1)CN(c1cnc(-c3ncccn3)nc1)CC2` [Example 1, 2-([2,2′-Bipyrimidin]-5-yl)-5,7-difluoro-1,2,3,4-tetrahydroisoquinoline]: the EC50 under setting [1] worked out at 1900 nM.
Same read-out and setting: in the case of `Fc1cc(F)c2c(c1)CN(c1ccnc(-c3ncccn3)n1)CC2` [Example 2, 2-([2,2′-Bipyrimidin]-4-yl)-5,7-difluoro-1,2,3,4-tetrahydroisoquinoline] it was 1600 nM; in that of `Fc1ccc2c(c1F)CCN(c1cnc(-c3ncccn3)nc1)C2` [Example 3, 2-([2,2′-Bipyrimidin]-5-yl)-5,6-difluoro-1,2,3,4-tetrahydroisoquinoline], 3400 nM; in that of `Fc1ccc2c(c1F)CCN(c1ccnc(-c3ncccn3)n1)C2` [Example 4, 2-([2,2′-Bipyrimidin]-4-yl)-5,6-difluoro-1,2,3,4-tetrahydroisoquinoline], 900 nM.
On the same count and under the same terms, next, `CC1CN(c2cnc(-c3ncccn3)nc2)Cc2ccccc21` (stereo not shown) [Example 5, 2-([2,2′-Bipyrimidin]-5-yl)-4-methyl-1,2,3,4-tetrahydroisoquinoline]: 34000 nM; `CC1c2ccccc2CCN1c1cnc(-c2ncccn2)nc1` (stereo not shown) [Example 6, 1-Methyl-2-(2-pyrimidin-2-ylpyrimidin-5-yl)-3,4-dihydro-1H-isoquinoline]: 1400 nM; `CC1c2ccccc2CCN1c1ccnc(-c2ncccn2)n1` (stereo not shown) [Example 7, 2-([2,2′-Bipyrimidin]-4-yl)-1-methyl-1,2,3,4-tetrahydroisoquinoline]: 1900 nM.
Turning to `CCC1Cc2ccccc2CN1c1ccnc(-c2ncccn2)n1` (stereo not shown) [Example 8, 2-([2,2′-Bipyrimidin]-4-yl)-3-ethyl-1,2,3,4-tetrahydroisoquinoline], under setting [1], the EC50 was found to be 2300 nM.
The same measure, in the same setting: in the case of `c1cnc(-c2nccc(N3CCc4ccccc4C3)n2)nc1` [Example 9, 2-([2,2′-Bipyrimidin]-4-yl)-1,2,3,4-tetrahydroisoquinoline] it was 8500 nM.
The same measure, in the same setting: in the case of `CCC1c2ccccc2CCN1c1cnc(-c2ncccn2)nc1` (stereo not shown) [Example 10, 2-([2,2′-Bipyrimidin]-5-yl)-1-ethyl-1,2,3,4-tetrahydroisoquinoline] it was 250 nM; in that of `CCC1c2ccccc2CCN1c1ccnc(-c2ncccn2)n1` (stereo not shown) [Example 13, 2-([2,2′-Bipyrimidin]-4-yl)-1-ethyl-1,2,3,4-tetrahydroisoquinoline], 500 nM.
Take `FC(F)(F)c1cccc2c1CN(c1cnc(-c3ncccn3)nc1)C2` [Example 14, 2-([2,2′-Bipyrimidin]-5-yl)-4-(trifluoromethyl)isoindoline]: under setting [1], the EC50 amounted to 25000 nM.
Same read-out and setting: next, `CC1CN(c2ccnc(-c3ncccn3)n2)Cc2ccccc21` (stereo not shown) [Example 15, 2-([2,2′-Bipyrimidin]-4-yl)-4-methyl-1,2,3,4-tetrahydroisoquinoline]: 1100 nM; `CC1CN(c2cnc(-c3ncccn3)nc2)C(=O)c2ccccc21` (stereo not shown) [Example 16, 2-([2,2′-Bipyrimidin]-5 yl)-4-methyl-3,4-dihydroisoquinolin-1(2H)-one]: 9100 nM.
Still for that read-out and setting: in the case of `Fc1cc2c(cc1F)CN(c1ccnc(-c3ncccn3)n1)CC2` [Example 17, 2-([2,2′-Bipyrimidin]-4-yl)-6,7-difluoro-1,2,3,4-tetrahydroisoquinoline] it was 610 nM; in that of `COc1cc2c(cc1OC)C1(CCC1)N(c1cnc(-c3ncccn3)nc1)CC2` [Example 18, 2′-([2,2′-Bipyrimidin]-5-yl)-6′,7′-dimethoxy-3′,4′-dihydro-2′H-spiro[cyclobutane-1,1′-isoquinoline]], 50000 nM; in that of `CCC1c2ccccc2CN1c1cnc(-c2ncccn2)nc1` (stereo not shown) [Example 19, 2-([2,2′-Bipyrimidin]-5-yl)-1-ethylisoindoline], 800 nM.
On the same count and under the same terms, next, `c1cnc(-c2ncc(N3CC4CCC3c3ccccc34)cn2)nc1` (stereo not shown) [Example 20, 10-([2,2′-Bipyrimidin]-5-yl)-1,2,3,4-tetrahydro-1,4-(epiminomethano) naphthalene]: 32000 nM; `c1cnc(-c2ncc(N3CC4CC3c3ccccc34)cn2)nc1` (stereo not shown) [Example 21, 2-([2,2′-Bipyrimidin]-5-yl)-1,2,3,4-tetrahydro-1,4-methanoisoquinoline]: 27000 nM; `c1cnc(-c2ncc(N3C4CCC3c3ccccc34)cn2)nc1` [Example 22, 9-([2,2′-Bipyrimidin]-5-yl)-1,2,3,4-tetrahydro-1,4-epiminonaphthalene]: 21000 nM.
As for `CCCC1c2ccccc2CCN1c1ccnc(-c2ncccn2)n1` (stereo not shown) [Example 23, 2-([2,2′-Bipyrimidin]-4-yl)-1-propyl-1,2,3,4-tetrahydroisoquinoline], under setting [1], the EC50 came out at 1000 nM.
On the same count and under the same terms, in the case of `CC1c2ccc(F)c(F)c2CCN1c1cnc(-c2ncccn2)nc1` (stereo not shown) [Example 24, 2-([2,2′-Bipyrimidin]-5-yl)-5,6-difluoro-1-methyl-1,2,3,4-tetrahydroisoquinoline] it was 340 nM; in that of `CCC1c2cc(F)c(F)cc2CCN1c1cnc(-c2ncccn2)nc1` (stereo not shown) [Example 25, 2-([2,2′-Bipyrimidin]-5-yl)-1-ethyl-6,7-difluoro-1,2,3,4-tetrahydroisoquinoline], 85 nM.
Still for that read-out and setting: in the case of `COC(=O)CC1c2cc(OC)c(OC)cc2CCN1c1cnc(-c2ncccn2)nc1` (stereo not shown) [Example 26, Methyl 2-(2-([2,2′-bipyrimidin]-5-yl)-6,7-dimethoxy-1,2,3,4-tetrahydroisoquinolin-1-yl) acetate] it was 1200 nM; in that of `COc1cc2c(cc1OC)C(CC(=O)O)N(c1cnc(-c3ncccn3)nc1)CC2` (stereo not shown) [Example 27, 2-(2-([2,2′-Bipyrimidin]-5-yl)-6,7-dimethoxy-1,2,3,4-tetrahydroisoquinolin-1-yl) acetic Acid], 28000 nM; in that of `CCC1c2ccc(OC)c(OC)c2CCN1c1cnc(-c2ncccn2)nc1` (stereo not shown) [Example 28, 2-([2,2′-Bipyrimidin]-5-yl)-1-ethyl-5,6-dimethoxy-1,2,3,4 Tetrahydroisoquinoline], 180 nM.
The same measure, in the same setting: in the case of `CCC1c2cc(OC)c(F)c(F)c2CCN1c1cnc(-c2ncccn2)nc1` (stereo not shown) [Example 29, 1-Ethyl-5,6-difluoro-7-methoxy-2-(2-pyrimidin-2-ylpyrimidin-5-yl)-3,4-dihydro-1H-isoquinoline] it was 170 nM.
For `CCC1c2ccc(F)c(F)c2CCN1c1cnc(-c2ncccn2)nc1` (stereo not shown) [Example 32, 1-Ethyl-5,6-difluoro-2-(2-pyrimidin-2-ylpyrimidin-5-yl)-3,4-dihydro-1H-isoquinoline], the EC50 under setting [1] was found to be 2000 nM.
Still for that read-out and setting: next, `CCC1c2c(OC)ccc(F)c2CCN1c1cnc(-c2ncccn2)nc1` (stereo not shown) [Example 35, 1-Ethyl-5-fluoro-8-methoxy-2-(2-pyrimidin-2-ylpyrimidin-5-yl)-3,4-dihydro-1H-isoquinoline]: 620 nM; `CC1c2ccc(F)c(F)c2CCN1c1ccnc(-c2ncccn2)n1` (stereo not shown) [Example 36, 2-([2,2′-Bipyrimidin]-4-yl)-5,6-difluoro-1-methyl-1,2,3,4-tetrahydroisoquinoline]: 480 nM.
The same measure, in the same setting: next, `CCC1c2ccc(F)c(F)c2CCN1c1ccnc(-c2ncccn2)n1` (stereo not shown) [Example 39, 1-Ethyl-5,6-difluoro-2-(2-pyrimidin-2-ylpyrimidin-4-yl)-3,4-dihydro-1H-isoquinoline]: 590 nM.
The same measure, in the same setting: in the case of `CCC1c2c(OC)ccc(F)c2CCN1c1ccnc(-c2ncccn2)n1` (stereo not shown) [Example 42, 1-Ethyl-5-fluoro-8-methoxy-2-(2-pyrimidin-2-ylpyrimidin-4-yl)-3,4-dihydro-1H-isoquinoline] it was 62 nM; in that of `CCC1c2ccc(F)c(OC)c2CCN1c1ccnc(-c2ncccn2)n1` (stereo not shown) [Example 46, 1-Ethyl-6-fluoro-5-methoxy-2-(2-pyrimidin-2-ylpyrimidin-4-yl)-3,4-dihydro-1H-isoquinoline], 130 nM.
On to `CCC1c2cc(OC)c(F)c(F)c2CCN1c1ccnc(-c2ncccn2)n1` (stereo not shown) [Example 47, 1-Ethyl-5,6-difluoro-7-methoxy-2-(2-pyrimidin-2-ylpyrimidin-4-yl)-3,4-dihydro-1H-isoquinoline], for which the EC50 under setting [1] amounted to 480 nM.
For `CCC1c2cc(F)c(F)cc2CN1c1ccnc(-c2ncccn2)n1` (stereo not shown) [Example 48, 2-([2,2′-Bipyrimidin]-4-yl)-1-ethyl-5,6-difluoroisoindoline], the EC50 under setting [1] came out at 92 nM.
Same read-out and setting: in the case of `CCC1c2cc(F)c(F)cc2CN1c1nc(-c2ncccn2)ncc1F` (stereo not shown) [Example 51, 1-Ethyl-5,6-difluoro-2-(5-fluoro-[2,2′-bipyrimidin]-4-yl)isoindoline] it was 27 nM.
On the same count and under the same terms, in the case of `CCC1c2cc(F)c(F)cc2CN1c1nc(-c2ncccn2)ncc1C` (stereo not shown) [Example 52, 1-Ethyl-5,6-difluoro-2-(5-methyl-[2,2′-bipyrimidin]-4-yl)isoindoline] it was 43 nM; in that of `CCC1c2cc(F)c(F)cc2CN1c1nc(-c2ncccn2)ncc1Cl` (stereo not shown) [Example 53, 2-(5-Chloro-[2,2′-bipyrimidin]-4-yl)-1-ethyl-5,6-difluoroisoindoline], 30 nM.
Same read-out and setting: next, `CCC1c2cc(F)c(F)cc2CN1c1nc(-c2ncccn2)ncc1C1CC1` (stereo not shown) [Example 54, 2-(5-Cyclopropyl-[2,2′-bipyrimidin]-4-yl)-1-ethyl-5,6-difluoroisoindoline]: 220 nM.
